{"source": "patent US8343458B2", "about": "“Probes for in vivo targeting of active cysteine proteases” (The Board of Trustees of the Leland Stanford Junior …, priority 2008, dated 2013)", "tested_on": "thymus tissue undergoing apoptosis", "assay": "Tissue uptake in dexamethasone apoptosis mouse model", "format": "in vivo", "settings": "dexamethasone-treated mice, 125I-labeled probe, radioactivity over time", "method": "Graphs are for thymus, blood, muscle and liver.\nDistribution studies were done in mice that were treated with dexamethazone (IP injection) to induce apoptosis in the thymus. This animal model is further described, e.g., in Casteels et al. “Sex Difference in Resistance to Dexamethasone-Induced Apoptosis in NOD Mice,” Diabetes, 47:1033-1037, 1998. AB53 was labeled with ^125I at the nitrophenol capping group.\nReferring now to FIG. 6, data for the uptake of the probe in different tissues was obtained. Presented there are four graphs, one for thymus (FIG. 6A), one for blood (FIG. 6B) one for muscle (FIG. 6C) and one for liver (FIG. 6D), showing data from the in vivo uptake studies with ^125I-AB53. Graphs plot radioactivity as percent of initial dose/g of tissue from ^125I measured in different organs over time.", "data": [{"smiles": "Cc1cccc(C)c1C(=O)OCC(=O)[C@H](CC(=O)O)NC(=O)C1CCCN1C(=O)[C@H](Cc1ccc(-c2ccccc2)cc1)NC(=O)Cc1ccc([N+](=O)[O-])c(O)c1", "note": "(stereo partly shown) [AB53]", "values": [{"measurement": "Probe uptake in thymus", "result": "accumulates specifically in the thymus tissue that is undergoing apoptosis"}]}]}
